Measurements taken from patent publication US11419878B2, “Medicine obtained by combining FXR agonist and ARB” (Intercept Pharmaceuticals, Inc., priority 2016, dated 2022).

Assays:
[1] = system: human hepatic stellate cells (HHSC); assay: HHSC proliferation inhibition, WST-1 cell proliferation assay; assay type: cell-based; details: AT-II 10^-6M + LPS 10^-5M; ARB 10^-6M, obeticholic acid 5×10^-6M; 24 hours; WST-1 absorbance
Method: The various combined effects of obeticholic acid and three types of ARBs (losartan, valsartan, and candesartan) were confirmed in an in vitro cell system experiment. Specifically, using human hepatic stellate cells (HHSC), which are implicated in the main mechanism of progression of hepatic fibrosis in NASH, the effects of administration of obeticholic acid in combination with the three ARBs of inhibiting HHSC proliferation capacity and the expression of fibrosis markers were evaluated according to the following method. Human hepatic stellate cells (HHSC) (also referred to as human hepatic star cells) Obeticholic acid (obtained from Intercept Pharmaceuticals, Inc. via Sumitomo Dainippon Pharma Co., Ltd.) was used as an FXR agonist, and commercial losartan (potassium salt of losartan; referred to in this working example simply as “losartan”) and valsartan and candesartan ([…] of candesartan; referred to in this working example simply as “candesartan”) were used as ARBs. […] The direct action of inhibiting HIISC proliferation capacity was evaluated by means of a cell proliferation assay using WST-1 reagent. […] AT-II (10^-6M) Positive control group L […]): LPS 10^-5M) Positive control group AL ([…]): (10^-6M)+LPS (10^-5M) Obeticholic acid administration (G3): AT-II (10^-6M)+LPS (10^-5M)+obeticholic acid (5×10^-6M) ARB administration (G4): AT-II (10^-6M)+LPS (10^-5M)+ARB (10^-6M) Obeticholic acid+ARB combined administration (G5): AT-II (10^-6M)+LPS (10^-5M)+obeticholic acid (5×10^-6M)+ARB (10^-6M) 3) After the cells of the above groups (G1, G2A, G2L, G2AL, G3, G4, G5) were cultured for 24 hours, respective WST-1 cell proliferation assays were conducted, and the inhibitory effect of the pharmaceutical agents on cell proliferation was evaluated. The inhibitory effect of valsartan and candesartan on HHSC proliferation was also evaluated according to steps 1)-3) above. […]

TGF-β1 = assay: HHSC fibrosis marker gene expression, RT-PCR, TGF-β1; assay type: cell-based, human; details: AT-II 10^-6M + LPS 10^-5M; ARB 10^-6M, obeticholic acid 5×10^-6M; 24 hours; monotherapy vs G2AL, combination vs monotherapy groups
Method: (§1) The various combined effects of obeticholic acid and three types of ARBs (losartan, valsartan, and candesartan) were confirmed in an in vitro cell system experiment. Specifically, using human hepatic stellate cells (HHSC), which are implicated in the main mechanism of progression of hepatic fibrosis in NASH, the effects of administration of obeticholic acid in combination with the three ARBs of inhibiting HHSC proliferation capacity and the expression of fibrosis markers were evaluated according to the following method. Human hepatic stellate cells (HHSC) (also referred to as human hepatic star cells) Obeticholic acid (obtained from Intercept Pharmaceuticals, Inc. via Sumitomo Dainippon Pharma Co., Ltd.) was used as an FXR agonist, and commercial losartan (potassium salt of losartan; referred to in this working example simply as “losartan”) and valsartan and candesartan ([…] of candesartan; referred to in this working example simply as “candesartan”) were used as ARBs. Angiotensin II (AT-II) and/or lipopolysaccharide (LPS) were used (both AT1-mediated AT-II signalling and TLR4-mediated LPS signaling are known to play major roles in HSC activation and the progression of hepatic fibrosis). With respect to the effect of inhibiting fibrosis marker gene expression, collagen production capacity and TGF-β production capacity were evaluated by the RT-PCR method. 1) HHSCs were inoculated onto a 6-well plate in the amount of 300,000 cells/2 ml and allowed to proliferate in 1% FBS DMEM medium for 24 hours. 2) After 24 hours, the cells were divided into the following 7 groups and transferred to culture medium after adding the following drugs and/or reagents. Losartan was used as an ARB. Negative control group (G1): No drugs added (control) […] AT-II (10^-6M) Positive control group L […]): LPS (10^-5M) Positive control group AL ([…]): (10^-6M)+LPS (10^-5M) Obeticholic acid administration (G3): AT-II (10^-6M)+LPS (10^-5M)+obeticholic acid (5×10^-6M) ARB administration (G4): AT-II (10^-6M)+LPS (10^-5M)+ARB (10^-6M) Obeticholic acid+ARB combined administration (G5): AT-II (10^-6M)+LPS (10^-5M)+obeticholic acid (5×10^-6M)+ARB (10^-6M) […] Evaluations were conducted in the five groups G1, G2AL, G3, G4, and G5.

α1(I) procollagen = assay: HHSC fibrosis marker gene expression, RT-PCR, α1(I) procollagen; assay type: cell-based, human; details: AT-II 10^-6M + LPS 10^-5M; ARB 10^-6M, obeticholic acid 5×10^-6M; 24 hours; monotherapy vs G2AL, combination vs monotherapy groups
Method: as §1

CCCCC(=O)N(Cc1ccc(-c2ccccc2-c2nnn[nH]2)cc1)[C@H](C(=O)O)C(C)C [valsartan]
statistically significant inhibition: promotion of activated HHSC proliferation by AT-II and LPS, compared to positive control group AL (G2AL) [1] | TGF-β1 mRNA expression induced by AT-II and LPS in HHSC (TGF-β1) | α1(I)-procollagen mRNA expression induced by AT-II and LPS in HHSC (α1(I) procollagen)

CCOc1nc2cccc(C(=O)O)c2n1Cc1ccc(-c2ccccc2-c2nn[nH]n2)cc1 [candesartan]
statistically significant inhibition: promotion of activated HHSC proliferation by AT-II and LPS, compared to positive control group AL (G2AL) [1] | TGF-β1 mRNA expression induced by AT-II and LPS in HHSC (TGF-β1) | α1(I)-procollagen mRNA expression induced by AT-II and LPS in HHSC (α1(I) procollagen)
